Data on nine molecules can be found in ChEMBL document CHEMBL5465560, “Selectivity Literature for EUbOPEN Chemogenomic Library” (2024).

Test [1] addresses T1, Phosphatidylinositol 3-kinase C2 domain-containing subunit gamma (Homo sapiens) (UniProt O75747).
T1 sequence (whole entry): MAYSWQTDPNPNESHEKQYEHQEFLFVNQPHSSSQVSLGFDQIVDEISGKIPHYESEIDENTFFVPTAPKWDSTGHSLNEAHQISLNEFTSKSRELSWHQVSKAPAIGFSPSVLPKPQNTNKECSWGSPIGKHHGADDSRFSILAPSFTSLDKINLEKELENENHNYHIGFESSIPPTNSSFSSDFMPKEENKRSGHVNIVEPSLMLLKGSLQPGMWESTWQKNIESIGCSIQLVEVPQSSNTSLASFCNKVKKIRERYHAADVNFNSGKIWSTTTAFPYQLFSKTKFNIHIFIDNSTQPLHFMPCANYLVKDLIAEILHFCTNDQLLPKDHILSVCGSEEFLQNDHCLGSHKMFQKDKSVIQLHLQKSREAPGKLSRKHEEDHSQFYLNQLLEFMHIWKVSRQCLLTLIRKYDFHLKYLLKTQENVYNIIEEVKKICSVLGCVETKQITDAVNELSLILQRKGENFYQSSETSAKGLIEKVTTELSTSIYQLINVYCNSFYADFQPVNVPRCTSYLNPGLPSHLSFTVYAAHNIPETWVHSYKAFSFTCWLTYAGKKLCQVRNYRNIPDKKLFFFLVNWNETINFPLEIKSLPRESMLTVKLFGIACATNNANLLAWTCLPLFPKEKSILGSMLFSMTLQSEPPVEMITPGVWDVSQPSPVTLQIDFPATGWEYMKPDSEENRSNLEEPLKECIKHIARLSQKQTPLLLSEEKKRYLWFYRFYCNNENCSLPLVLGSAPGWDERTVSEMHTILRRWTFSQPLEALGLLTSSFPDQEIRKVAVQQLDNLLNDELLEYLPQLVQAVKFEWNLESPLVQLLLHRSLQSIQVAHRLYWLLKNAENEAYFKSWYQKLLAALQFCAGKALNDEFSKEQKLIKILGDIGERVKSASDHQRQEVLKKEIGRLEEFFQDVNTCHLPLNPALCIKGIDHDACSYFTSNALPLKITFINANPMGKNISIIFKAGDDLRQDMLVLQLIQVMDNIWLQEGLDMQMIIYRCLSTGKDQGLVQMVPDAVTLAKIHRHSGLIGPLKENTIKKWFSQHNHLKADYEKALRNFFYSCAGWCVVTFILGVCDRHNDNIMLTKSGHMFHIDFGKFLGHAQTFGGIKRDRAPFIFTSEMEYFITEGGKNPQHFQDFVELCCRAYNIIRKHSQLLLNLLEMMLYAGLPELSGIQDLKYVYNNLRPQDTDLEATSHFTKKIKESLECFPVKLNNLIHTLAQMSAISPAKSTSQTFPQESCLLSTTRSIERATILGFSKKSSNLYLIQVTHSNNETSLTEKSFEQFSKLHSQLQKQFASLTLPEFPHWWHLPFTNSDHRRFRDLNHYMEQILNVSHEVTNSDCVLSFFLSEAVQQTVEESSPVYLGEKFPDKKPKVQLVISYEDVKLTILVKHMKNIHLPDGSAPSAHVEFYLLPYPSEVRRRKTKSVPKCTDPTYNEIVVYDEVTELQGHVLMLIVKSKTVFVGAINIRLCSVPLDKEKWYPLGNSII
Description: Selectivity interaction (KinomeScan (DiscoverX)) EUB0000655a PIK3C2G. The settings on record: at 10 µM.

The target in test [2] is T2, Serine/threonine-protein kinase 4 (Homo sapiens) (UniProt Q13043).
T2 sequence (whole entry): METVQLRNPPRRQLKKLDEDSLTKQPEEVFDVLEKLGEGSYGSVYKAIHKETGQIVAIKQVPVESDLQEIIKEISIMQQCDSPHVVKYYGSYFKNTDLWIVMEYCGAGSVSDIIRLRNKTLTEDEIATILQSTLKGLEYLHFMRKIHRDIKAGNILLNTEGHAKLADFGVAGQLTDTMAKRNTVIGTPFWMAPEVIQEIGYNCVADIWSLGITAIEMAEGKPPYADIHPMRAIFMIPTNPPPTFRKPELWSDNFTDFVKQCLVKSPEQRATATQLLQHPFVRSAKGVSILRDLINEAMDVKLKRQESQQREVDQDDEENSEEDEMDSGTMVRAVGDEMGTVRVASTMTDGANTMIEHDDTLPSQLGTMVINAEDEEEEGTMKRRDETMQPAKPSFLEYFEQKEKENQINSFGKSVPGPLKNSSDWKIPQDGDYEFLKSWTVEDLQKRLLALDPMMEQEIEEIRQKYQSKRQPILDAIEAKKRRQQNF
Briefly: Selectivity interaction (KinomeScan (DiscoverX)) EUB0000695a STK4. The settings on record: at 100 nM.

The target in test [3] is Tyrosine-protein kinase ABL1 (Homo sapiens, UniProt P00519). Briefly: Selectivity interaction (Kinase screening (Nanosyn)) EUB0000604a ABL1.
Tyrosine-protein kinase ABL1, sequence (P00519 whole entry): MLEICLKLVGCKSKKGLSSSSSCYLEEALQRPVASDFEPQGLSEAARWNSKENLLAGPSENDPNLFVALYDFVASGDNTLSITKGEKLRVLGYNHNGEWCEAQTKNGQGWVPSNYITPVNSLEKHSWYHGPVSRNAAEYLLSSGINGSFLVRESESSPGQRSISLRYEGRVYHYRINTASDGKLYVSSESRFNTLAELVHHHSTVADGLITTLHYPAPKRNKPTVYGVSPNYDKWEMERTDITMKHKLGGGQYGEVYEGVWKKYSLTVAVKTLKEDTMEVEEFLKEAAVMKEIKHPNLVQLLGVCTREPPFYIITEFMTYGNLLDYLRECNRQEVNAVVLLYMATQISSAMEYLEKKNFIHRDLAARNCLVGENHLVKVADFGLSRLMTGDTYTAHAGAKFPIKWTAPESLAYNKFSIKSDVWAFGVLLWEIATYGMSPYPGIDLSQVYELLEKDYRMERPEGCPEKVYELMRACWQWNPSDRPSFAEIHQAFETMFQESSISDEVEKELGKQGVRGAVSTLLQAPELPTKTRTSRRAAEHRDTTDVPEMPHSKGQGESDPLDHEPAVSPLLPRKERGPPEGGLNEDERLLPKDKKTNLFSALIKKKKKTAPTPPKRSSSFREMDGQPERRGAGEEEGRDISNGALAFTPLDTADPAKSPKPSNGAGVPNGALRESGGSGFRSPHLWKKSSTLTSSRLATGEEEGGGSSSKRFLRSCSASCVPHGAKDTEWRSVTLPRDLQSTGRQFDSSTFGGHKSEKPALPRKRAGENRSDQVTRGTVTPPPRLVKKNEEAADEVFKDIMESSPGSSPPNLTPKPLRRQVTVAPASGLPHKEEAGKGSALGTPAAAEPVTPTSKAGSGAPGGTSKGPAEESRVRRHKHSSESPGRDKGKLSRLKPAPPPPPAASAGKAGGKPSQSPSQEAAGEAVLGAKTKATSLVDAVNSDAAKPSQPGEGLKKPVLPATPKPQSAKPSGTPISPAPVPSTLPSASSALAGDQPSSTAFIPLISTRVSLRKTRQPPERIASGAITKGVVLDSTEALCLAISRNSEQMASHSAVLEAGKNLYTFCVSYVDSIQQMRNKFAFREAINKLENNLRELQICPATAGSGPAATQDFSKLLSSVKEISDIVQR
The target in test [4] is Histone-lysine N-methyltransferase KMT5B (Homo sapiens) (UniProt Q4FZB7). Description: Selectivity interaction (Transferase panel (protein, RNA, and DNA methyltransferases. and EP300 (acetyltransferase))) EUB0000270b SUV420H1.
Histone-lysine N-methyltransferase KMT5B (Homo sapiens), sequence (Q4FZB7 whole entry, looked up): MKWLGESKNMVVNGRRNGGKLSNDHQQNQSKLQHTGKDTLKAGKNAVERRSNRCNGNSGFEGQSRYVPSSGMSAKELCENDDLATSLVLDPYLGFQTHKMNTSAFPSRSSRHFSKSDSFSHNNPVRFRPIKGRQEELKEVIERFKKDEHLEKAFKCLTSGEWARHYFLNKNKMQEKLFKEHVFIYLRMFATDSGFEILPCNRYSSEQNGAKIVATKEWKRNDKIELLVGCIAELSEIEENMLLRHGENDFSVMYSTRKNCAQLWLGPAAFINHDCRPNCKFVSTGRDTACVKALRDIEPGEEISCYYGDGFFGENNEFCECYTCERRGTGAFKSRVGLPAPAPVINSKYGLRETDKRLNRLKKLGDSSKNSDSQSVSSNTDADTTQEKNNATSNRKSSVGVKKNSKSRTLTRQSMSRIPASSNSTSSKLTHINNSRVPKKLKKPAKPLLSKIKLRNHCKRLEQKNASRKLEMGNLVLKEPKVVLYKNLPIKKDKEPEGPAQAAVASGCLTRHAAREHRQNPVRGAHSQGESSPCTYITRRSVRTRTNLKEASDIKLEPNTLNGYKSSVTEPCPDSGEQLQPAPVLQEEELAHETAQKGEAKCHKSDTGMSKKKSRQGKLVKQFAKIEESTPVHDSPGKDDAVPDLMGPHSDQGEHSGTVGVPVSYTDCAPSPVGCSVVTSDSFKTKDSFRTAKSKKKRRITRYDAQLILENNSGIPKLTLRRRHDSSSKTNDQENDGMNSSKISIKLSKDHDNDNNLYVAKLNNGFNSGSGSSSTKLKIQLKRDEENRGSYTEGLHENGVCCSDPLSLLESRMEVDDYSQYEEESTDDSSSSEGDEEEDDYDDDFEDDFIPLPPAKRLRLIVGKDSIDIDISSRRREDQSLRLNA
A short description of test [5]: Selectivity interaction (KinomeScan (DiscoverX)) EUB0000045b CDPK1.
For test [6], the target named is Tyrosine-protein kinase Fgr (Homo sapiens) (UniProt P09769). Briefly: Selectivity interaction (SelectScreen profiling (Invitrogen)) EUB0000607a FGR. The note with it: at 2 µM.
Tyrosine-protein kinase Fgr (Homo sapiens), sequence (P09769 2-529 limits assumed): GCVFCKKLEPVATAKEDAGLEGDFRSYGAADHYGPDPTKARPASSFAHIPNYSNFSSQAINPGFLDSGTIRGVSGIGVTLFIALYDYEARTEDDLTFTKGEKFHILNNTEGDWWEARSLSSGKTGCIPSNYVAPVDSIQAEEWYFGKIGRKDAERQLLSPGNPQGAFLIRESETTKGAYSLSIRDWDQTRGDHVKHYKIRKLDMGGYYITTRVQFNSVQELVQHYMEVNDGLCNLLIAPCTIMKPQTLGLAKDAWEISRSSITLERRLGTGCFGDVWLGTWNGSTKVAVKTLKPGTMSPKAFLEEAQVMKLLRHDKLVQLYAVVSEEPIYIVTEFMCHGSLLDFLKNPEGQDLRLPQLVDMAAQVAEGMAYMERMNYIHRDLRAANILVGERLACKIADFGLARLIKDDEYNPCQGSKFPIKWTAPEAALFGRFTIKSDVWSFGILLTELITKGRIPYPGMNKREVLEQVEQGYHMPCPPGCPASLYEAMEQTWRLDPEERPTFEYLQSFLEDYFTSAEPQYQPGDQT
The target of test [7] is Vascular endothelial growth factor receptor 3 (Homo sapiens, UniProt P35916). Briefly: Selectivity interaction (Kinase panel (Invitrogen)) EUB0000639a FLT4. The settings on record: at 200 nM.
Vascular endothelial growth factor receptor 3, sequence (P35916 whole entry): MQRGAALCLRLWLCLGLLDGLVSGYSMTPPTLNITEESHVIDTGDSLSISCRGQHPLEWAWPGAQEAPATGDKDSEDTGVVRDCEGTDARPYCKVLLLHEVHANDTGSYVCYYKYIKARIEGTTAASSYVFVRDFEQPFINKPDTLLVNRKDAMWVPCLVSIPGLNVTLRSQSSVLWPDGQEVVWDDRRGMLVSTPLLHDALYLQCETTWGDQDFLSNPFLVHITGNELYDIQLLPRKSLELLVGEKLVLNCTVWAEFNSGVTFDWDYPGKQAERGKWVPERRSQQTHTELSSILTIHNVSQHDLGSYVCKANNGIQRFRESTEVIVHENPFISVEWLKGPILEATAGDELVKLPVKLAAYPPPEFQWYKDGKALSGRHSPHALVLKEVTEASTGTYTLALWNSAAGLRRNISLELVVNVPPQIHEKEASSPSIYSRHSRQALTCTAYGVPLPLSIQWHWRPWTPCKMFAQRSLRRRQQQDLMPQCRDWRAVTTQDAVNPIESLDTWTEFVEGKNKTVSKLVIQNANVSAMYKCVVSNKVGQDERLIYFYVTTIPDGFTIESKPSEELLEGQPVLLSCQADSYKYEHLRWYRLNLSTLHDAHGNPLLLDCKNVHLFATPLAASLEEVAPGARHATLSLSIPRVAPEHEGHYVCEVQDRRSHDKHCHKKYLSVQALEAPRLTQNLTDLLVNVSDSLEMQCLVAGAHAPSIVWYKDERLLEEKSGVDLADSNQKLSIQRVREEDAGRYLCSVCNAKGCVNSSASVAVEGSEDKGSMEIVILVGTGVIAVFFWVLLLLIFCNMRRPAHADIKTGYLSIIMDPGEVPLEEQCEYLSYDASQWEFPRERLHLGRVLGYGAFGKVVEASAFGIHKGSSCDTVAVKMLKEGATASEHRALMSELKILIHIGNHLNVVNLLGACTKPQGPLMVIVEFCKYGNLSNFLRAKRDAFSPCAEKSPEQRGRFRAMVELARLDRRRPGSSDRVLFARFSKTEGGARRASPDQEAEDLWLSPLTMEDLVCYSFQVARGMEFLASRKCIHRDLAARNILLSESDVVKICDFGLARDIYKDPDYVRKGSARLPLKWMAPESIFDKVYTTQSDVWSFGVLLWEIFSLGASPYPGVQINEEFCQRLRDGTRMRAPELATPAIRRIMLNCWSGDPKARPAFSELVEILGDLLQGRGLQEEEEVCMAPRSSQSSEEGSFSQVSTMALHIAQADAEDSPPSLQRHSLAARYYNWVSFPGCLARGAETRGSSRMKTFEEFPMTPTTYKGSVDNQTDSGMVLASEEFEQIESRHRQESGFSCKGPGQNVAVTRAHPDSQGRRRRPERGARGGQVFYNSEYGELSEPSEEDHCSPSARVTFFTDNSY
In test [8] the target is Serine/threonine-protein kinase PRP4 homolog (Homo sapiens) (UniProt Q13523). Description: Selectivity interaction (Kinase panel (KiNativ target engagement assay in Jurkat cells)) EUB0001635a PRPF4. Format: cell-based. The settings on record: Selectivity number of off-targets 0.0, Selectivity number of targets 233.0, Source Knowledge https://www.sciencedirect.com/science/article/pii/S2451945619300674?via%3Dihub, at 1 µM.
Serine/threonine-protein kinase PRP4 homolog (Homo sapiens), sequence (Q13523 whole entry): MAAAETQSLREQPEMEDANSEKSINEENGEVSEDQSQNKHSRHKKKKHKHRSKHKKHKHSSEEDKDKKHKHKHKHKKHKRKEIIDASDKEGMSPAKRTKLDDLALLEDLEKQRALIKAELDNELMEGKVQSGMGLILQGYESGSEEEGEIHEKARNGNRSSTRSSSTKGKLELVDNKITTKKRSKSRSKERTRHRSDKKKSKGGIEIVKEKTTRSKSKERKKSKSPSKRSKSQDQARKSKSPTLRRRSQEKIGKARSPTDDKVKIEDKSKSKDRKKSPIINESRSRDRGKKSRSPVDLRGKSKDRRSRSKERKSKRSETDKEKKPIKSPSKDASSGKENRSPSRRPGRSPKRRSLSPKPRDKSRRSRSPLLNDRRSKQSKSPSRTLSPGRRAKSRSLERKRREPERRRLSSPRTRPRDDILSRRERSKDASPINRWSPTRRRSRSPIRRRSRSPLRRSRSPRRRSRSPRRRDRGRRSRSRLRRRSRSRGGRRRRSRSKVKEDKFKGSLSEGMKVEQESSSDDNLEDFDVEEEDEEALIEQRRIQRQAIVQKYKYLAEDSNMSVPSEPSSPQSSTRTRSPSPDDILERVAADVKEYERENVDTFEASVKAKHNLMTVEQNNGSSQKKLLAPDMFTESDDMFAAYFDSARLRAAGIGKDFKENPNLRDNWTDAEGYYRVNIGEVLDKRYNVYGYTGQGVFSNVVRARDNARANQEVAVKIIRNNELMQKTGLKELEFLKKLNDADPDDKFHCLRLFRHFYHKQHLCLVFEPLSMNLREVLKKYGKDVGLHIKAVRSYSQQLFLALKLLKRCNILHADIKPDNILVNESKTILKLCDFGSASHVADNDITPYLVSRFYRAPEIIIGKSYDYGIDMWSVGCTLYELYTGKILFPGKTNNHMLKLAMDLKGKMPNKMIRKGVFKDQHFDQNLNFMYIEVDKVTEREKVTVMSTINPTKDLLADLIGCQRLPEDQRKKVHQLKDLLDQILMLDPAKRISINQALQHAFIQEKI

The target in test [9] is T3, Dual specificity mitogen-activated protein kinase kinase 4 (Homo sapiens) (UniProt P45985).
T3 sequence (whole entry): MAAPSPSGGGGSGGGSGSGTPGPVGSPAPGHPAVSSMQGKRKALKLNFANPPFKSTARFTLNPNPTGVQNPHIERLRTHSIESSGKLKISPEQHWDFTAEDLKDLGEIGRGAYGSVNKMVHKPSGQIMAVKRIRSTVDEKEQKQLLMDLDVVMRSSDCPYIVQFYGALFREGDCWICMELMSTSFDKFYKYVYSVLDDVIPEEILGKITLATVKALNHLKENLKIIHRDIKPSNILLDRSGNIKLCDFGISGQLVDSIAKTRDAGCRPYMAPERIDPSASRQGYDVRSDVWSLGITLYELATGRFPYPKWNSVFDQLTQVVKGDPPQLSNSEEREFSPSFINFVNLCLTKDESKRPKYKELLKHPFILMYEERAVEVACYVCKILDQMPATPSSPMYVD
Briefly: Selectivity interaction (KinomeScan (DiscoverX)) EUB0000618a MAP2K4. The settings on record: at 10 µM.

In test [1], `CN(C)CCOc1ccc(-c2nc(-c3ccncc3)c(-c3ccc4c(c3)CC/C4=N\O)[nH]2)cc1` showed a % of control of 55%.

Molecule `Cc1cc(F)c(C(=O)Nc2cccc(-c3nncn3C(C)C)n2)cc1-n1cnc(C2CC2)c1` showed a % of control in test [2] of 100%.

Take `Cc1cnc(Nc2ccc(F)cc2Cl)nc1-c1c[nH]c(C(=O)N[C@H](CO)c2cccc(Cl)c2)c1`: the % of inhibition in [3] was determined as 3%.

`Cc1cc(CN)cc(C)c1-c1ncn(C)c1-c1cncn1C`: the % activity is over 90% in [4] (at 1 µM) and over 80% in test [4] (at 10 µM).

As to `C=CC(=O)Nc1cc(-n2c(=O)ccc3cnc4ccc(-c5ccc(NS(C)(=O)=O)cc5)cc4c32)ccc1C`, the % of control was 100% in test [5] (at 1 µM) and 62% in test [5] (at 10 µM).

`CNC(=O)Nc1ccc(-c2nc(N3CC4CCC(C3)O4)c3cnn(C4CCC5(CC4)OCCO5)c3n2)cc1` returned a % of inhibition in [6] of 1%.

For `CC[C@@H]1[C@H](F)C(=O)N[C@@H]1COc1nccc2cc(C(N)=O)c(OC)cc12` [ZIMLOVISERTIB], the % of inhibition in [7] came out at 0.591%.

As to `C=CC(=O)Nc1ccc(C(=O)Nc2[nH]nc3c2CN(C(=O)N[C@H](CN(C)C)c2ccccc2)C3(C)C)cc1`, the % of engagement in test [8] is -13.3%.

Take `O[C@H]1CC[C@H](Nc2ncc3nc(Nc4c(F)cc(F)cc4F)n([C@H]4CCOC4)c3n2)CC1`: the % of control in test [9] is 27%.
